Results from US5455229A, “Method for minimizing and containing ischemic and reperfusion injury” (Eli Lilly and Company, priority 1992, dated 1995).

What was measured:
beagle dogs = test: In vivo assay: myocardial infarct size following coronary artery occlusion (1 hr) and reperfusion (5 hr) in anesthetized dogs; design: species or system dog; details: dogs infused with aprotinin, control dogs 37.9±5.4%, P<0.05
Protocol: Adult male beagle dogs weighing approximately 9-14 kg were anesthetized with pentobarbital sodium (30 mg/kg, i.v.). The tracheae were intubated, and the dogs were ventilated with room air delivered from a Harvard respirator (ventilation rate of 16 cycles/min, tidal volume, 25 ml/kg). Body temperature was maintained at 37-°38° C. with a heating pad. Catheters were placed in the left femoral artery and vein for measurement of phasic arterial blood pressure (Starham transducer, P23ID) and i.v. infusion of drug solutions, respectively. Mean arterial blood pressure was calculated as diastolic blood pressure plus 1/3 pulse pressure. Cardiac rate was monitored by a cardiotachometer that was triggered by the systolic pressure pulse, while the pressure rate product was monitored as an index of myocardial oxygen demand. […] Directly measured parameters were recorded continuously on a multichannel oscillograph (Beckman Instruments,Inc., Fullerton Calif.; model R611).
A left thoracotomy was performed at the fifth intercostal space, the heart was suspended in a pericardial cradle, and the left circumflex coronary artery (LCX) was isolated distal to its atrial branch and proximal to any major ventricular branches. Baseline circumflex coronary artery blood flow was measured using a calibrated flowprobe (Carolina Medical Electronics, 6 mm I.C.) connected to a Carolina flowmeter (model FM501). […]

dog = details: Diaz et al., Am. J. Cardiol. 40: 541-549, 1977; cited from earlier work

aprotinin [reference compound]
infarct size, % of the left ventricular mass at risk of necrosis (beagle dogs): 24.8±2.4% | myocardial ischemic injury associated with coronary artery occlusion (dog): has been shown to limit myocardial ischemic injury
